Experimental findings from ChEMBL document CHEMBL5120827, “Metabolomics and Genomics Approach for the Discovery of Serrawettin W2 Lipopeptides from Serratia marcescens NP2” (J Nat Prod, 2022) are described below.

This assay has as its system Enterococcus faecium. In words: Antibacterial activity against clinical isolate Enterococcus faecium assessed as reduction in microbial growth by broth microdilution. Type of assay: functional, organism-based. In general terms: Dilution methods test growth across graded concentrations, often in twofold steps.
One may read the MIC as the lowest concentration found to suppress growth. Turning to `CCCCCCCCCC1CC(=O)N[C@@H](CC(C)C)C(=O)N[C@@H](CO)C(=O)N[C@@H]([C@@H](C)O)C(=O)N[C@@H](Cc2ccccc2)C(=O)N[C@@H](C(C)C)C(=O)O1` (stereo not given in full), the MIC was over 125 µg/mL. Same read-out and setting: in the case of `CCCCCC1CC(=O)N[C@H](CC(C)C)C(=O)N[C@@H](CO)C(=O)N[C@@H]([C@@H](C)O)C(=O)N[C@@H](Cc2ccccc2)C(=O)N[C@@H](CC(C)C)C(=O)O1` (stereo not given in full) it was over 125 µg/mL; in that of `CCCCCC1CC(=O)N[C@H](CC(C)C)C(=O)N[C@@H](CO)C(=O)N[C@@H]([C@@H](C)O)C(=O)N[C@@H](Cc2ccccc2)C(=O)N[C@@H](C(C)C)C(=O)O1` (stereo not given in full), over 125 µg/mL.

The term IC50 denotes the concentration that gives 50% inhibition. Consider `CCCCCCCC1CC(=O)N[C@H](CC(C)C)C(=O)N[C@@H](CO)C(=O)N[C@@H]([C@@H](C)O)C(=O)N[C@@H](Cc2ccccc2)C(=O)N[C@@H](CC(C)C)C(=O)O1` (stereo not given in full), for which the half-maximal inhibitory concentration (IC50) stood at 8.4 µg/mL and the MIC amounted to 15.6 µg/mL. On to `CCCCCC1CC(=O)N[C@H](CC(C)C)C(=O)N[C@@H](CO)C(=O)N[C@@H]([C@@H](C)O)C(=O)N[C@@H](Cc2ccccc2)C(=O)N[C@@H]([C@@H](C)CC)C(=O)O1` (stereo not given in full), for which the half-maximal inhibitory concentration (IC50) worked out at 53.1 µg/mL and the minimal inhibitory concentration (MIC) worked out at 62.5 µg/mL. `CCCCCCCC1CC(=O)N[C@@H](CC(C)C)C(=O)N[C@@H](CO)C(=O)N[C@@H]([C@@H](C)O)C(=O)N[C@@H](Cc2ccccc2)C(=O)N[C@@H](C(C)C)C(=O)O1` (stereo not given in full): the MIC is over 125 µg/mL.

`CCCCCCCCCC1CC(=O)N[C@H](CC(C)C)C(=O)N[C@@H](CO)C(=O)N[C@@H]([C@@H](C)O)C(=O)N[C@@H](Cc2ccccc2)C(=O)N[C@@H]([C@@H](C)CC)C(=O)O1` (stereo not given in full): the minimal inhibitory concentration (MIC) is over 125 µg/mL.

`CCCCCCCCCC1CC(=O)N[C@H](CC(C)C)C(=O)N[C@@H](CO)C(=O)N[C@@H]([C@@H](C)O)C(=O)N[C@@H](Cc2ccccc2)C(=O)N[C@@H](CC(C)C)C(=O)O1` (stereo not given in full): the MIC is over 125 µg/mL.
